Experimental data published in US9212173B2, “Pyrazole aminopyrimidine derivatives as LRRK2 modulators” (Genentech, Inc., priority 2012, dated 2015).

Target: LRRK2 (Homo sapiens (Human), UniProt Q5S007, G2019S)
Experiment: In Vitro LRRK2 Assay (LRRK2 Ki)
Assay type: biochemical
Protocol: In Vitro LRRK2 Lanthascreen Binding Assay
This assay was used to determine a compound's potency in inhibiting activity of LRRK2 by determining, Kiapp, IC50, or percent inhibition values.
Binding of the Alexa Fluor® “tracer” to a kinase is detected by addition of a Eu-labeled anti-GST antibody.
12 pt curve. […] Stamp 5 ul to assay plate. Final top test concentration 100 uM
In Reaction Buffer, 5 ul of DMSO (3%) was added to total and blank wells and 5 ul of Eu-labeled anti-GST antibody (6 nM) was added to blank wells. Add 5 ul LRRK2 (30 nM)/Eu-labeled anti-GST antibody (6 nM) mix to compound and total wells.
Incubate plates at room temperature for 1 hour on a plate shaker (gentle shaking). Read on Perkin Elmer EnVision reader HTRF protocol
Subtract mean background values from all data points. Calculate % of control for each test value. Plot % of control vs Compound concentration. Calculate Ki Value (xlfit curve fitting-Morrison equation). Results expressed as a Ki in μM. Equation for Ki: Y=V0*(1−((x+Ki*(1+S/Km)+Et)/(2*Et)−(((x+Ki*(1+S/Km)+Et)^2−(4*Et*x))^0.5)/(2*Et)))
This assay was used to determine a compound's potency in inhibiting activity of LRRK2 by determining, Kiapp, IC50, or percent inhibition values. In a polypropylene plate, LRRK2, fluorescently-labeled peptide substrate, ATP and test compound were incubated together. Using a LabChip 3000 (Caliper Life Sciences), after the reaction the substrate was separated by capillary electrophoresis into two populations: phosphorylated and unphosphorylated. The relative amounts of each were quantitated by fluorescence intensity. LRRK2 Ki was determined according to the equation: Y=V0*(1−((x+Ki*(1+S/Km)+Et)/(2*Et)−(((x+Ki*(1+S/Km)+Et)^2−(4*Et*x))^0.5)/(2*Et))).
Ki values in Table 4 and elsewhere herein are shown in μM.
For serial dilutions, 34.6 μl DMSO was added to columns 3-24.
In Complete Reaction Buffer, substrate was diluted to 4 μM. Equal volumes of Complete Reaction Buffer and 4 μM substrate were combined to obtain the blank. Equal volumes of Complete Reaction Buffer and 4 μM substrate were combined and to the combined solution was added 2× final LRRK2 concentration.
To a 50 μl polypropylene plate, 5 μl/well buffer/substrate was added by hand to Blank wells. A Biomek FX was used to start the kinase reaction (“PLK SAR 23 ATP”). The following were added to the appropriate wells:
The plate was incubated for 2 hours in the dark. Biomek FX was used to stop the kinase reaction (“PLK Stop”), and 10 μl/well Stop solution was added to the Assay Plate. Results were read on the LabChip 3000.
The LabChip 3000 was run using the job “LRRK2 IC50” with the following job settings: […]

LRRK2, sequence (Q5S007 whole entry G2019S): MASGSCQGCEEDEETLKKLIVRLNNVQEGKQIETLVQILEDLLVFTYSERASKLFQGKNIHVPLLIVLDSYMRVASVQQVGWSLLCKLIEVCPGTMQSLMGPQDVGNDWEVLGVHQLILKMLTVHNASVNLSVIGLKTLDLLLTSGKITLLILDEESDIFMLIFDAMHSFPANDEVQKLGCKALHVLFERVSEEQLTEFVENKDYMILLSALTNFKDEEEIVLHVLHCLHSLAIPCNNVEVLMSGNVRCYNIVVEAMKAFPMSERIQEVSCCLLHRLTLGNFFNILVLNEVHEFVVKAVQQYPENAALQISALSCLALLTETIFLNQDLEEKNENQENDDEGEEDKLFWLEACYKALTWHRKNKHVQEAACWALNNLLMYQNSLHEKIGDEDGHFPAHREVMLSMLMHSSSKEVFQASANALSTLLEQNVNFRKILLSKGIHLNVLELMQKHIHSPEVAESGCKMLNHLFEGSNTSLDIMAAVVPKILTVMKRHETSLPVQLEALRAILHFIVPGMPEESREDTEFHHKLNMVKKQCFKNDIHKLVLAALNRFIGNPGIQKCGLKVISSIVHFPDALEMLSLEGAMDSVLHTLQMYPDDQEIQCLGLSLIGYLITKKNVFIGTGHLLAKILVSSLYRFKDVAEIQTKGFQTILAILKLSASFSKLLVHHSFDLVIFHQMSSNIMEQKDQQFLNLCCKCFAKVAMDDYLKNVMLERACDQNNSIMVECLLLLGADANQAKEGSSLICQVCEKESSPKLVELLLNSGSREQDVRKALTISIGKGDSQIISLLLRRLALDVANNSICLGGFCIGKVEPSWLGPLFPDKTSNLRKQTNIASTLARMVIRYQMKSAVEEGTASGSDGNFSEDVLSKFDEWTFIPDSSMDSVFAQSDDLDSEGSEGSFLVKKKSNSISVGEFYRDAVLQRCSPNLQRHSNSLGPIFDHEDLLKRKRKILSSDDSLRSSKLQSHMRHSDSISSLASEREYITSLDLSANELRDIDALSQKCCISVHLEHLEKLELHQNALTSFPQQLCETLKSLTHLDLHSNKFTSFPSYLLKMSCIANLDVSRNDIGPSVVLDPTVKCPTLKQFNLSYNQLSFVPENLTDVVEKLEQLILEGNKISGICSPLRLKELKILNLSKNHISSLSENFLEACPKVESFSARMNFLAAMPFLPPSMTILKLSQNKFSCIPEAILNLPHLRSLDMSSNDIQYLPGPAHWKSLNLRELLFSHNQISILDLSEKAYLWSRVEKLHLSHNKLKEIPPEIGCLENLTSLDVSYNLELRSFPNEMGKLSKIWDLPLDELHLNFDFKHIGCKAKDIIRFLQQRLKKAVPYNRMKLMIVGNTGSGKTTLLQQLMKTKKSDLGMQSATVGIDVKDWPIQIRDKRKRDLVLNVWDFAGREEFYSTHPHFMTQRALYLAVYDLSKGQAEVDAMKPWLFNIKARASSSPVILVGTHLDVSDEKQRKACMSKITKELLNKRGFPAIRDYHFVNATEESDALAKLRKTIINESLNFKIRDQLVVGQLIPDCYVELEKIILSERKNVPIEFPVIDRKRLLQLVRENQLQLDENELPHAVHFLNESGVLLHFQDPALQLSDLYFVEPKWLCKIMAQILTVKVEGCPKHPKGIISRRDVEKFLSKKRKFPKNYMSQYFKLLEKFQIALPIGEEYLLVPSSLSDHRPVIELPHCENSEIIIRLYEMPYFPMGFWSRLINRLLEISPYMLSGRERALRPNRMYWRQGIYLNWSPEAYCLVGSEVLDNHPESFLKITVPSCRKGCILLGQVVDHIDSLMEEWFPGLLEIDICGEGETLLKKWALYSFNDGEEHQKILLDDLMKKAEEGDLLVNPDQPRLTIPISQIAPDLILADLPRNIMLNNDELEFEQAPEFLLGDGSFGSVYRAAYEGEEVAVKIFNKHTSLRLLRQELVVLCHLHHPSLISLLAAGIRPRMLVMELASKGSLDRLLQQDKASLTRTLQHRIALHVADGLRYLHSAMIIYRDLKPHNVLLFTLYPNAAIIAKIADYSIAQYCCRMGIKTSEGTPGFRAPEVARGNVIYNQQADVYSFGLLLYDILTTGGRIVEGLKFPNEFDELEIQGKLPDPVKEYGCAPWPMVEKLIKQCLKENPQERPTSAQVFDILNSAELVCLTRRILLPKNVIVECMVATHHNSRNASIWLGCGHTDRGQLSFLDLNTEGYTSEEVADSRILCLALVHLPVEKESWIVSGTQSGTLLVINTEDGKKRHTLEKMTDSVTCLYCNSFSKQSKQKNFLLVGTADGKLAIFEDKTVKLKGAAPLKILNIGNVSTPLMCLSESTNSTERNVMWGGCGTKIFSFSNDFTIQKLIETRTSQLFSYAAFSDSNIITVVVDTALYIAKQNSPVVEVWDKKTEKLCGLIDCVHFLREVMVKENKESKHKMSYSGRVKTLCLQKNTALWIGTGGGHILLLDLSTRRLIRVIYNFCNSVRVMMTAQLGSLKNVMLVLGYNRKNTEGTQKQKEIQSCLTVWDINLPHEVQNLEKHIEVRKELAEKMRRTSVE

| Ki [nM] | Compound |
| --- | --- |
| 0.975 | CCNc1nc(Nc2cn(C3(C)COC3)nc2C)ncc1C(F)(F)F [Example 19, N4-ethyl-N2-(3-methyl-1-(3-methyloxetan-3-yl)-1H-pyrazol-4-yl)-5-(trifluoromethyl)pyrimidine-2,4-diamine] |
| 0.96 | CCNc1nc(Nc2cn(S(=O)(=O)CCOC)nc2C)ncc1C(F)(F)F [Example 20, N4-ethyl-N2-(1-((2-methoxyethyl)sulfonyl)-3-methyl-1H-pyrazol-4-yl)-5-(trifluoromethyl)pyrimidine-2,4-diamine] |
| 2 | CNc1nc(Nc2cnn(CCc3ccn(C)n3)c2C)ncc1C(F)(F)F [Example 33, N4-methyl-N2-(5-methyl-1-(2-(1-methyl-1H-pyrazol-3-yl)ethyl)-1H-pyrazol-4-yl)-5-(trifluoromethyl)pyrimidine-2,4-diamine] |
| 6.2 | CCNc1nc(Nc2cnn(C3CCOCC3)c2Cl)ncc1C#N [Example 7, 2-((5-chloro-1-(tetrahydro-2H-pyran-4-yl)-1H-pyrazol-4-yl)amino)-4-(ethylamino)pyrimidine-5-carbonitrile] |
| 24.5 | CCNc1nc(Nc2cc(C#N)nn2C)ncc1C(F)(F)F [Example 50, 5-((4-(ethylamino)-5-(trifluoromethyl)pyrimidin-2-yl)amino)-1-methyl-1H-pyrazole-3-carbonitrile] |
| 3.7 | CCNc1nc(Nc2cn(C(C)(C)c3nnc(C)o3)nc2Cl)ncc1C(F)(F)F [Example 27, N2-(3-chloro-1-(2-(5-methyl-1,3,4-oxadiazol-2-yl)propan-2-yl)-1H-pyrazol-4-yl)-N4-ethyl-5-(trifluoromethyl)pyrimidine-2,4-diamine] |
